Data from paper PMC6576746, “Rational discovery of dual-indication multi-target PDE/Kinase inhibitor for precision anti-cancer therapy using structural systems pharmacology” (PLoS Computational Biology, 2019).

Experiments:
Assay in all cases: cells
Set-up in all cases: species or system panel of human cancer cell lines; Eurofins OncoPanel proliferation; nuclei count by high-content fluorescence imaging, 10-point dose response
T24 = settings: Homo sapiens, T-24, 72 h, cell count, 3 days
Procedure: (§1) OncoPanel cancer cell proliferation assay was performed by Eurofins Panlabs, Inc. (Missouri, USA). Cancer cells were grown in RPMI 1640, 10% FBS, 2 mM L-alanyl-L-glutamine, 1 mM Na pyruvate, or a special medium. Cells were seeded into 384-well plates and incubated in a humidified atmosphere of 5% CO2 at 37°C. Compounds were added the day following cell seeding. At the same time, a time zero untreated cell plate was generated. After a 3-day incubation period, cells were fixed and stained to allow fluorescence imaging of nuclei. Levosimendan was serially diluted in half-log steps from 100 μM and assayed over 10 concentrations with a maximum assay concentration of 0.1% DMSO. Automated fluorescence microscopy was carried out using a Molecular Devices ImageXpress Micro XL high-content imager, and images were collected with a 4X objective. 16-bit TIFF images were acquired and analyzed with MetaXpress 5.1.0.41 software. Cell count EC50 is the test concentration at the curve inflection point (parameter C), or half the effective response. IC50 is the test compound concentration at 50% of the maximum possible response. GI50 is the concentration needed to reduce the observed growth by half (midway between the relative cell count at the curve maximum and at the time of compound addition). Activity area is an estimate of the integrated area above the response curve. Activity area values range from 0–10, where a value of zero indicates no inhibition of proliferation at all concentrations, and a value of 10 indicates complete inhibition of proliferation at all concentrations.

MHH-PREB-1 = settings: Homo sapiens, MHH-PREB-1, 72 h, cell count, 3 days
Procedure: as §1

ARH-77 = settings: Homo sapiens, ARH-77, 72 h, cell count, 3 days
Procedure: as §1

OVCAR3 = settings: Homo sapiens, OVCAR-3, 72 h, cell count, 3 days
Procedure: as §1

BeWo = settings: Homo sapiens, BeWo, 72 h, cell count, 3 days
Procedure: as §1

HuTu 80 = settings: Homo sapiens, HuTu80, 72 h, cell count, 3 days
Procedure: as §1

NCI-H520 = settings: Homo sapiens, NCI-H520, 72 h, cell count, 3 days
Procedure: as §1

LS123 = settings: Homo sapiens, LS-123, 72 h, cell count, 3 days
Procedure: as §1

WiDr = settings: Homo sapiens, WiDr, 72 h, cell count, 3 days
Procedure: as §1

5637 = settings: 72 h, cell count, 3 days
Procedure: as §1

Colo 201 = settings: Homo sapiens, COLO 201, 72 h, cell count, 3 days
Procedure: as §1

Hs 934.T = settings: 72 h, cell count, 3 days
Procedure: as §1

GA-10 = settings: Homo sapiens, GA-10, 72 h, cell count, 3 days
Procedure: as §1

BT-549 = settings: Homo sapiens, BT-549, 72 h, cell count, 3 days
Procedure: as §1

[1] = 50% of maximum possible response

Compound: C[C@@H]1CC(=O)NN=C1c1ccc(NN=C(C#N)C#N)cc1 [levosimendan]
- IC50 (T24; [1]): 6.95 µM
- GI50 (T24; corrected for time zero): 6.6 µM
- EC50 (T24; curve inflection point): 6.27 µM
- IC50 (MHH-PREB-1; [1]): 7.64 µM
- GI50 (MHH-PREB-1; corrected for time zero): 7.08 µM
- EC50 (MHH-PREB-1; curve inflection point): 7.4 µM
- IC50 (ARH-77; [1]): 20.3 µM
- GI50 (ARH-77; corrected for time zero): 16 µM
- EC50 (ARH-77; curve inflection point): 19.3 µM
- IC50 (OVCAR3; [1]): 42.6 µM
- GI50 (OVCAR3; corrected for time zero): 24.1 µM
- EC50 (OVCAR3; curve inflection point): 42.6 µM
- IC50 (BeWo; [1]): 37.4 µM
- GI50 (BeWo; corrected for time zero): 33.9 µM
- EC50 (BeWo; curve inflection point): 37.4 µM
- IC50 (HuTu 80; [1]): 16 µM
- GI50 (HuTu 80; corrected for time zero): 14.2 µM
- EC50 (HuTu 80; curve inflection point): 16 µM
- IC50 (NCI-H520; [1]): > 100 µM
- GI50 (NCI-H520; corrected for time zero): > 100 µM
- EC50 (NCI-H520; curve inflection point): > 100 µM
- IC50 (LS123; [1]): 53.3 µM
- GI50 (LS123; corrected for time zero): 22 µM
- EC50 (LS123; curve inflection point): 43.8 µM
- IC50 (WiDr; [1]): 77.6 µM
- GI50 (WiDr; corrected for time zero): 70.6 µM
- EC50 (WiDr; curve inflection point): 77.6 µM
- IC50 5637; [1]: 64.7 µM
- GI50 (5637; corrected for time zero): 53.5 µM
- EC50 (5637; curve inflection point): 64.7 µM
- IC50 (Colo 201; [1]): 68.3 µM
- GI50 (Colo 201; corrected for time zero): 53.8 µM
- EC50 (Colo 201; curve inflection point): 68.3 µM
- IC50 (Hs 934.T; [1]): > 100 µM
- GI50 (Hs 934.T; corrected for time zero): > 100 µM
- EC50 (Hs 934.T; curve inflection point): > 100 µM
- IC50 (GA-10; [1]): 10.2 µM
- GI50 (GA-10; corrected for time zero): 9.28 µM
- EC50 (GA-10; curve inflection point): 10.2 µM
- IC50 (BT-549; [1]): 15.4 µM
- GI50 (BT-549; corrected for time zero): 11.3 µM
- EC50 (BT-549; curve inflection point): 12.7 µM
